Assay results taken from US12358904B2, “Inhibitors of TYK2” (Atomwise Inc., priority 2023, dated 2025).

Assays:
TYK2-JH2 = target: T1, TYK2-JH2 (Homo sapiens, UniProt P29597); assay: TYK2-JH2 HTRF binding assay (ligand efficiency); conditions: calculated from IC50 of the TYK-JH2 binding assay (Equation 1)
T1 construct: TYK JH2 enzyme mix (ChemPartnec CP20210818A-BV); purchased ChemPartner CP20210818A-BV
Experimental: The following example describes the TYK2-JH2 HTRF binding assay used to determine the ligand efficiency of the TYK2 inhibitors.
To calculate ligand efficiency, Equation 1 is applied:
[formula] in which IC50 comes from the binding assay used to determine compound potency.
TYK JH2 enzyme mix (ChemPartnec CP20210818A-BV), tracer (ChemPartnec CP-0029472-051) and mAb Anti-6HIS Tb cryptate Gold (Cisbio: Cat No. 61H12TLA) mix were prepared in assay buffer (10 mM MgCl2, 20 mM HEPES pH 7.5, 0.01% Triton X-100, 1 mM DTT). Compounds diluted in DMSO (Final Concentrations 0.1 to 0.000005 [μM]) and enzyme mix (0.5 nM Final Concentration) were added to 384 well plates, briefly centrifuged and incubated at room temperature for 10 minutes. After incubation, tracer mix (Tracer-35 nM final concentration); (Mab Anti-6HIS Tb cryptate Gold-0.5× final)) was added, briefly centrifuged then incubate at room temperature 60 minutes. After incubation, plates were read by Envision TR-FRET (Ex340/Em495/520) protocol (PerkinElmer-Envision 2104 multilabel plate reader).

IL-12/pSTAT4 = assay: IL-12 induced pSTAT4 assay in NK-92 cells; format: cell-based; conditions: Homo sapiens, NK92, IL-12 stimulation, read-out: Cellular potency (IL-12/pSTAT4)
Experimental: The following example describes the IL-12 induced pSTAT4 assay used to determine the cellular potency (IL-12/pSTAT4) of the TYK2 inhibitors.
NK-92 cells (human natural killer lymphoma cell line) were cultured in MEM α, nucleosides (Life Technologies, 22571020) 12.5% heat inactivated FBS (Dominique Dutscher, S1810), 12.5% heat inactivated Horse serum (Life Technologies, 26050088) and 1% Penicillin-Streptomycin (Life Technologies, 15140122), 5 ng/mL human IL-2 (R&D systems, 202-II/CF), 0.2 mM inositol (Sigma, PHR1351 lot LRAC4118), 0.1 mM β-mercaptoethanol (Life Technologies, 31350010), and 0.02 mM folic acid (Sigma, F8758).
NK-92 cells were starved overnight in starvation medium (Opti-MEM (ThermoFisher, 11058-021), 10% charcoal stripped FBS (ThermoFisher 12676-029), and 1% Penicillin (100U/ml)-Streptomycin (100 μg/ml) (ThermoFisher, ref 15140122)), then plated in a 96-well tissue culture plate (20K cells/well) prior to pre-incubation with test compounds (Final Concentration [nM] 1000 to 0.05) for 30 minutes at 37° C. Cells were stimulated with IL-12 (Final Concentration l0 ng/ml) for 30 minutes at 37° C., and terminated by addition of lysis buffer (MSD K150PAD-2). pSTAT4 (Tyr693) was detected using the Mesa Scale Discovery platform (MSD K150PAD-2), according to manufacturer's instruction. Briefly, cell lysates were added to pre-blocked plates and incubated for 1 hour at room temperature. Plates were washed and incubated with detection antibody for 1 hour at room temperature. Plates were washed and Read Buffer was added prior to measurement on the MSD (1300 MSD Quickplex SQ 120).

IL-6/pSTAT3 = assay: IL-6 induced pSTAT3 assay in TF-1 cells; format: cell-based; conditions: Homo sapiens, read-out: Cellular selectivity (IL-6/pSTAT3)
Experimental: The following example describes the IL-6 induced pSTAT3 assay used to determine the cellular selectivity (IL-6/pSTAT3) of the TYK2 inhibitors.
TF-1 (ATCC®, CRL-2003™) cells were cultured in RPMI 1640 Medium, with GlutaMAX™ Supplement, HEPES for Cell Culture (Life Technologies, 72400047), 10% Fetal Bovine Serum (Life Technologies, 26400044), 2 ng/mL human recombinant GM-CSF (Life Technologies, PHC2013), 1 mM Sodium pyruvate (Life Technologies, 11360039), 1% MEM NEAA (Life Technologies, 11140-035), 1% Penicillin/Streptomycin (Life Technologies, 15140-122).
TF-1 (70×10^6) cells were starved overnight in T01 50 flasks (Opti-MEM™ I Reduced Serum Medium, no phenol red (Life Technologies, 11058-021), 1 mM Na pyruvate (Life Technologies, 11360039), 1% MEM NEAA (Life Technologies, 11140-035), and 1% Penicillin/Streptomycin (Life Technologies, 15140-122)) then seeded into 96-well TPP plates (150 000 cell/well) and incubated with test compounds (Final Concentration [nM] 10000-0.05) for 30 minutes at 37° C. […] Stimulation was terminated by addition of lysis buffer (MSD K150SVD) and pSTAT3 detection was measured with Phospho-STAT3 (Tyr705) Kit MSD K150SVD)) according to manufacturer's instruction. Briefly, cell lysates were added to pre-blocked plates, sealed, and shake for 1 hour at room temperature. Plates were then washed and incubated with detection antibody for 1 hour at room temperature. After washing, Read Buffer was added, and plates were read on MSD instrument (Model 1300 MSD Quickplex SQ 120).

GM-CSF/pSTAT5 = assay: GM-CSF induced pSTAT5 assay in CellSensor irf1-bla TF-1 cells; format: cell-based; conditions: Homo sapiens, GM-CSF 1 ng/mL, read-out: Cellular selectivity (GM-CSF induced pSTAT5)
Experimental: The CellSensor irf1-bla TF-1 cell line (LifeTechnologies, K1657) was cultured in RPMI 1640 Medium (Invitrogen 72400-047), 10% Fetal Bovine Serum (Invitrogen, 26400044), 1 mM Sodium pyruvate (Life Technologies, 11360039), 1% MEM NEAA (Life Technologies, 11140-035), 2 ng/ml of human recombinant GM-CSF (Fisher, PHC2015), 1% Penicillin/Streptomycin (Life Technologies, 15140-122) and 5 μg/ml of Blasticidin (ThermoFisher, A1113903).
The cell line was seeded in a T75 flask at 13×10^6 cells/50 mL in starvation medium (Opti-MEM™ I Reduced Serum Medium, no phenol red (Life Technologies, 11058-021), 1 mM Na pyruvate (Life Technologies, 11360039), 1% MEM NEAA (Life Technologies, 11140-035), and 1% Penicillin/Streptomycin (Life Technologies, 15140-122)) for 16 hours at 37° C. under 5% CO2 the day before the assay.
For the assay, CellSensor irf1-bla TF-1 cells were seeded at 30 000 cells/32 μL (starvation medium)/well in a 384-well plate.
Compounds were added on the cells in 4 μL (starvation medium)/well at 10× the final concentration. They were incubated for 30 minutes at 37° C.
Human recombinant carrier-free GM-CSF (ThermoFisher, ref PHC2015) was added to the wells in 4 μL (starvation medium)/well at 10×. The final concentration was 1 ng/mL. Control wells without GM-CSF treatment were added. Plates were incubated for 5 hours at 37° C.
6× LiveBlazer-FRET substrate (Invitrogen, K1085) was added to the wells at 8 μL/well. The substrate was prepared shortly before use by mixing 6 μL of solution A and 60 μL of solution B to 934 μL of solution C. Plates were incubated for 2.5 hours at room temperature in the dark. The plates were read on an Envision (Perkin Elmer) with an excitation at a wavelength of 409 nm and two wavelengths for the emission 520 nm and 450 nm. The ratio between the […] emission was used to calculate the IC50s.
The IC50 for the inhibition of pSTAT5 was calculated with the Xlfit software using the 4 Parameter Logistic Model or Sigmoidal Dose-Response Model (model 205).

T1 sequence (P29597 589-875 limits assumed): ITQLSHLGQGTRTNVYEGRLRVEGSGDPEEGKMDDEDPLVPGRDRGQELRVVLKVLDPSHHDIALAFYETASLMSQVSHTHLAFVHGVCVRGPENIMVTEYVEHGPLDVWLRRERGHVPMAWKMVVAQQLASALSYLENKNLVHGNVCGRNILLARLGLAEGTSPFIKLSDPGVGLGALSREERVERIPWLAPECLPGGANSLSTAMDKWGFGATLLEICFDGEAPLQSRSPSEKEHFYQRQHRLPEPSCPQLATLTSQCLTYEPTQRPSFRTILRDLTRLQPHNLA

**Q.** Which results are given for `CC(c1ccc(Nc2cc(Nc3ncccc3S(C)(=O)=O)ncn2)nc1)N1CC2(CC(F)C2)C1` (stereo in doubt) [Compound 10, N^4-(5-((1R)-1-(6-fluoro-2-azaspiro[3.3]heptan-2-yl)ethyl) 87yridine-2-yl)-N^6-(3-(methylsulfonyl)87yridine-2-yl)pyrimidine-4,6-diamine]?
**A.** Ligand Efficiency (TYK2-JH2): ††† (†††: >0.39); IC50 (IL-12/pSTAT4): < 0.1 µM; IC50 (IL-6/pSTAT3): 4 to 10 µM; IC50 (GM-CSF/pSTAT5): > 10 µM

**Q.** Which “Ligand Efficiency” value (TYK2-JH2) does the source give for `COc1cnc(Nc2cc(Nc3ccc([C@H](C)N4CC5(COC5)C4)cn3)ncn2)c(S(C)(=O)=O)c1` [Compound 3, (S)—N^4-(5-(1-(2-oxa-6-azaspiro[3.3]heptan-6-yl)ethyl)pyridine-2-yl)-N^6-(5-methoxy-3-(methylsulfonyl)77yridine-2-yl)pyrimidine-4,6-diamine] here?
**A.** The value was “†† (††: 0.37-0.39)”.

**Q.** What about the IC50 (IL-12/pSTAT4) of the same compound?
**A.** Its IC50 is < 0.1 µM.

**Q.** What about the IC50 (IL-6/pSTAT3) of the same compound?
**A.** The IC50 was 4 to 10 µM.

**Q.** And the IC50 (GM-CSF/pSTAT5)?
**A.** The IC50 was > 10 µM.

**Q.** What does the source list for `CS(=O)(=O)c1cccnc1Nc1cc(Nc2ccc3c(n2)CCC[C@@H]3N2CC3(COC3)C2)ncn1` [Compound 5, I-N^4-(5-(2-oxa-6-azaspiro[3.3]heptan-6-yl)-5,6,7,8-tetrahydroquinolin-2-yl)-N^6-(3-(methylsulfonyl)81yridine-2-yl)pyrimidine-4,6-diamine]?
**A.** Ligand Efficiency (TYK2-JH2): †† (††: 0.37-0.39); IC50 (IL-12/pSTAT4): < 0.1 µM; IC50 (IL-6/pSTAT3): 4 to 10 µM; IC50 (GM-CSF/pSTAT5): > 10 µM

**Q.** With `Cc1nc(Nc2cc(Nc3ncccc3S(C)(=O)=O)ncn2)ccc1NC1(C)COC1` [Compound 6, N^4-(6-methyl-5-((3-methyloxetan-3-yl)amino)82yridine-2-yl)-N^6-(3-(methylsulfonyl)82yridine-2-yl)pyrimidine-4,6-diamine] as the compound, how does the “Ligand Efficiency” value (TYK2-JH2) read?
**A.** The value was “††† (†††: >0.39)”.

**Q.** What about the IC50 (IL-12/pSTAT4) of the same compound?
**A.** The IC50 was < 0.1 µM.

**Q.** What about the IC50 (IL-6/pSTAT3) of the same compound?
**A.** The IC50 was 4 to 10 µM.

**Q.** What about the IC50 (GM-CSF/pSTAT5) of the same compound?
**A.** Its IC50 is > 10 µM.

**Q.** How did the “Ligand Efficiency” value (TYK2-JH2) turn out when `C[C@H]1CN(C2CC2)CCN1c1ccc(Nc2cc(Nc3ncccc3S(C)(=O)=O)ncn2)nc1` [Compound 8, (S)—N^4-(5-(4-cyclopropyl-2-methylpiperazin-1-yl)85yridine-2-yl)-N^6-(3-(methylsulfonyl)85yridine-2-yl)pyrimidine-4,6-diamine] was run?
**A.** Its value is “††† (†††: >0.39)”.

**Q.** What about the IC50 (IL-12/pSTAT4) of the same compound?
**A.** The IC50 was < 0.1 µM.

**Q.** And the IC50 (IL-6/pSTAT3)?
**A.** Its IC50 is 4 to 10 µM.

**Q.** And the IC50 (GM-CSF/pSTAT5)?
**A.** Its IC50 is < 4 µM.

**Q.** What does the source list for `CS(=O)(=O)c1cccnc1Nc1cc(Nc2ccc3c(n2)CC[C@@H]3N2CC3(COC3)C2)ncn1` [Compound 9, N^4-((5S)-5-(2-oxa-6-azaspiro[3.3]heptan-6-yl)-6,7-dihydro-5H-cyclopenta[b]86yridine-2-yl)-N^6-(3-(methylsulfonyl)86yridine-2-yl)pyrimidine-4,6-diamine]?
**A.** Ligand Efficiency (TYK2-JH2): ††† (†††: >0.39); IC50 (IL-12/pSTAT4): < 0.1 µM; IC50 (IL-6/pSTAT3): > 10 µM; IC50 (GM-CSF/pSTAT5): > 10 µM

**Q.** Which results are given for `C[C@@H](c1ccc(Nc2cc(Nc3ncccc3S(C)(=O)=O)ncn2)nc1C(F)(F)F)N1CC2(COC2)C1` [Compound 11, I-N^4-(5-(1-(2-oxa-6-azaspiro[3.3]heptan-6-yl)ethyl)-6-(trifluoromethyl)90yridine-2-yl)-N^6-(3-(methylsulfonyl)90yridine-2-yl)pyrimidine-4,6-diamine]?
**A.** Ligand Efficiency (TYK2-JH2): †† (††: 0.37-0.39); IC50 (IL-12/pSTAT4): < 0.1 µM; IC50 (IL-6/pSTAT3): < 4 µM; IC50 (GM-CSF/pSTAT5): > 10 µM

**Q.** `Cc1nc(Nc2cc(Nc3ncccc3S(C)(=O)=O)ncn2)ccc1[C@H](C)N1CC2(COC2)C1` [Compound 12, N^4-(5-(1-(2-oxa-6-azaspiro[3.3]heptan-6-yl)ethyl)-6-methylpyridin-2-yl)-N^6-(3-(methylsulfonyl)92yridine-2-yl)pyrimidine-4,6-diamine] was tested. Which “Ligand Efficiency” value (TYK2-JH2) did it give?
**A.** The value was “††† (†††: >0.39)”.

**Q.** And the IC50 (IL-12/pSTAT4)?
**A.** The IC50 was < 0.1 µM.

**Q.** And the IC50 (IL-6/pSTAT3)?
**A.** Its IC50 is < 4 µM.

**Q.** What about the IC50 (GM-CSF/pSTAT5) of the same compound?
**A.** Its IC50 is < 4 µM.

**Q.** How did the “Ligand Efficiency” value (TYK2-JH2) turn out when `CC(C)[C@@H](c1ccc(Nc2cc(Nc3ncccc3S(C)(=O)=O)ncn2)nc1)N1CC2(COC2)C1` [Compound 13, (S)—N^4-(5-(2-methyl-1-(2-oxa-6-azaspiro[3.3]heptan-6-yl)propyl)pyridine-2-yl)-N^6-(3-(methylsulfonyl)93yridine-2-yl)pyrimidine-4,6-diamine] was run?
**A.** The value was “†† (††: 0.37-0.39)”.

**Q.** And the IC50 (IL-12/pSTAT4)?
**A.** The IC50 was < 0.1 µM.

**Q.** And the IC50 (IL-6/pSTAT3)?
**A.** The IC50 was 4 to 10 µM.

**Q.** And the IC50 (GM-CSF/pSTAT5)?
**A.** The IC50 was > 10 µM.

**Q.** With `CS(=O)(=O)c1ccccc1Nc1cc(Nc2ccc(C(=O)NC3COC3)cn2)ncn1` [Compound 79, 6-((6-((2-(methylsulfonyl)phenyl)amino)pyrimidin-4-yl)amino)-N-(oxetan-3-yl)nicotinamide] as the compound, how does the “Ligand Efficiency” value (TYK2-JH2) read?
**A.** Its value is “†† (††: 0.37-0.39)”.

**Q.** What about the IC50 (IL-12/pSTAT4) of the same compound?
**A.** The IC50 was > 1 µM.

**Q.** What does the source list for `CS(=O)(=O)c1ccccc1Nc1cc(Nc2ccc(NC3COC3)cn2)ncn1` [Compound 80, N^4-(2-(methylsulfonyl)phenyl)-N^6-(5-(oxetan-3-ylamino)177yridine-2-yl) pyrimidine-4,6-diamine]?
**A.** Ligand Efficiency (TYK2-JH2): † (†: <0.37); IC50 (IL-12/pSTAT4): > 1 µM
